Data reported in US20040037735A1, “Allograft tissue purification process for cleaning bone” (priority 2002, published 2004).
Like-named read-outs stand apart in the source and are kept apart here.

Tests used:
[1] = system: Pseudomonas aeruginosa; assay: Bacteriological sterility: log reduction on cortical bone samples; format: cell-based; conditions: single process step; for Microbiological Log Reductions T2: full cycle time; for Microbiological Log Reductions T1: one quarter cycle time
Method: (§1) Bacteriological Sterility: Cortical bone samples were subjected to the previous steps of the process. […] The samples were assayed for bacteria activity, using standard assays.

[2] = system: Staphylococcus aureus; assay: as above; format: cell-based; conditions: single process step; for Microbiological Log Reductions T2: full cycle time; for Microbiological Log Reductions T1: one quarter cycle time
Method: as §1

[3] = system: Bacillus subtilis (vegetative); assay: as above; format: cell-based; conditions: single process step; for Microbiological Log Reductions T2: full cycle time; for Microbiological Log Reductions T1: one quarter cycle time
Method: as §1

[4] = system: Staphylococcus epidermidis; assay: as above; format: cell-based; conditions: single process step; for Microbiological Log Reductions T2: full cycle time; for Microbiological Log Reductions T1: one quarter cycle time
Method: as §1

[5] = system: Escherichia coli; assay: as above; format: cell-based; conditions: single process step; for Microbiological Log Reductions T2: full cycle time; for Microbiological Log Reductions T1: one quarter cycle time
Method: as §1

[6] = system: Candida albicans; assay: as above; format: cell-based; conditions: single process step; for Microbiological Log Reductions T2: full cycle time; for Microbiological Log Reductions T1: one quarter cycle time
Method: as §1

[7] = 32% DBM in hyaluronan carrier, histology after 28 days
Method: Osteoinductivity: Cortical bone from three donors ([…], […], […]) was processed using a control process, 0 hour H2O2 with no sonication, a treatment process with 1 hour, 3 hours, and 5 hours of H2O2 treatment, and a negative control. After processing, the bone was ground, demineralized, and prepared into 32% Demineralized Bone Matrix in a hyaluronan carrier. Samples (15 mg) were implanted bilaterally into the hamstring muscle in an athymic mouse model, approved by the University of Medicine and Dentistry of New Jersey animal care and use committee. Implants were evaluated histologically after 28 days.

## OO [H2O2, hydrogen peroxide]
[1]
  Microbiological Log Reductions T2: >5.09 Log
  Microbiological Log Reductions T1: >5.09 Log
[2]
  Microbiological Log Reductions T2: >5.93 Log
  Microbiological Log Reductions T1: >5.93 Log
[3]
  Microbiological Log Reductions T2: >5.25 Log
  Microbiological Log Reductions T1: >5.25 Log
[4]
  Microbiological Log Reductions T2: >5.21 Log
  Microbiological Log Reductions T1: >5.21 Log
[5]
  Microbiological Log Reductions T2: >5.19 Log
  Microbiological Log Reductions T1: >5.19 Log
[6]
  Microbiological Log Reductions T2: >5.10 Log
  Microbiological Log Reductions T1: >5.47 Log
[7]; 1 hour H2O2 treatment of bone
  mean (SD) osteoinductivity score: 3.04 (0.97)
[7]; 3 hours H2O2 treatment of bone
  mean (SD) osteoinductivity score: 2.57 (1.36)
[7]; 5 hours H2O2 treatment of bone
  mean (SD) osteoinductivity score: 1.47 (1.10)

## Triton X-100
[1]
  Microbiological Log Reductions T2: 3.40 Log
  Microbiological Log Reductions T1: 2.48 Log
[2]
  Microbiological Log Reductions T2: 0.20 Log
  Microbiological Log Reductions T1: −0.59 Log
[3]
  Microbiological Log Reductions T2: 2.41 Log
  Microbiological Log Reductions T1: 2.56 Log
[4]
  Microbiological Log Reductions T2: 0.41 Log
  Microbiological Log Reductions T1: 0.56 Log
[5]
  Microbiological Log Reductions T2: 1.82 Log
  Microbiological Log Reductions T1: 0.03 Log
[6]
  Microbiological Log Reductions T2: 1.58 Log
  Microbiological Log Reductions T1: 1.78 Log
